Numbers after ± are expanded uncertainties.
Details: 298.15 K, 101.33 kPa, Liquid; for viscosity: Capillary tube (Ostwald / Ubbelohde) method; for speed of sound: Sing-around technique in a fixed-path interferometer

Row | mass density [kg/m3] | viscosity [mPa·s] | speed of sound [m/s] | Structure (SMILES)
1 | 892.389 ± 0.75 | 1.405 ± 0.012 | 1671.6 ± 1.4 | NCCN [ethane-1,2-diamine]
2 | 798.104 ± 1 | 3.307 ± 0.025 | 1188.8 ± 1.3 | CC(C)CO [2-methyl-1-propanol]
3 | 805.953 ± 0.47 | 2.565 ± 0.016 | 1241.1 ± 1 | CCCCO [butan-1-ol]
4 | 781.051 ± 0.51 | 2.063 ± 0.013 | 1140.4 ± 0.9 | CC(C)O [propan-2-ol]

Reference: the NIST ThermoML archive (doi:10.1021/je1012857)
